According to ChEMBL document CHEMBL4011656, “Discovery and Optimization of Chromeno[2,3-c]pyrrol-9(2H)-ones as Novel Selective and Orally Bioavailable Phosphodiesterase 5 Inhibitors for the Treatment of Pulmonary Arterial Hypertension” (J Med Chem, 2017):
Active and inactive are the calls of the source. The calls are words filed in the database; no cut-off is given here.

Assays:
[1] = Apparent clearance in human liver microsomes at 0.5 uM; type: ADME, microsome; conditions: read-out: CLH(app)
[2] = target: High affinity cAMP-specific and IBMX-insensitive 3',5'-cyclic phosphodiesterase 8A (Homo sapiens, UniProt O60658); assay: Inhibition of PDE8A1 (480 to 820 residues) (unknown origin) using [3H]cGMP or [3H]cAMP as substrate after 15 mins by liquid scintillation counting method
Sequence of High affinity cAMP-specific and IBMX-insensitive 3',5'-cyclic phosphodiesterase 8A (O60658 whole entry, the tested form may be a part): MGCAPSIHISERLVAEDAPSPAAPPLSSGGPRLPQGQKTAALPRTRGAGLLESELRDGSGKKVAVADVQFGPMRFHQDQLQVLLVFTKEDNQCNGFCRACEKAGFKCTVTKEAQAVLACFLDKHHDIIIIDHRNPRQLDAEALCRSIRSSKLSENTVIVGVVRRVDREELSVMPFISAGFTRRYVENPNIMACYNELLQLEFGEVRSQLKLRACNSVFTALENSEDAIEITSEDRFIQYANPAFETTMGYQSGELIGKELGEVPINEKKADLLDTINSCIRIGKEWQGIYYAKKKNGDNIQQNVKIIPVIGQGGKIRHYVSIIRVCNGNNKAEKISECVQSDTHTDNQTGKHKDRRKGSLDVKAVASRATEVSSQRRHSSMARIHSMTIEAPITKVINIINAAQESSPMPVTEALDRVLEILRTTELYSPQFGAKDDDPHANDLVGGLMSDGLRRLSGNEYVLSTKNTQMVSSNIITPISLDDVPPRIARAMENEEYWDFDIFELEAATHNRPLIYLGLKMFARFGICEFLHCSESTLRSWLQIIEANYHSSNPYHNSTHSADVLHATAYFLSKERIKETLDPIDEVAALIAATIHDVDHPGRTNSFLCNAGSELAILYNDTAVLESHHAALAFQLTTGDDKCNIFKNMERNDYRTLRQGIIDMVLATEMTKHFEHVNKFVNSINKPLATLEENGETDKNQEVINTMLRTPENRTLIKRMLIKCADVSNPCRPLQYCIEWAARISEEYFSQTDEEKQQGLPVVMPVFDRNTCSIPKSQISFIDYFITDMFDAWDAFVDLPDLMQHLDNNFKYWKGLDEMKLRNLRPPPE

[3] = Half life in human microsomes at 0.5 uM; type: ADME, microsome; conditions: liver microsomes
[4] = target: Dual specificity calcium/calmodulin-dependent 3',5'-cyclic nucleotide phosphodiesterase 1B (Homo sapiens, UniProt Q01064); assay: Inhibition of PDE1B (10 to 487 residues) (unknown origin) expressed in Escherichia coli BL21(DE3) using [3H]cAMP or [3H]cGMP as substrate after 15 mins by liquid scintillation counting method
Sequence of Dual specificity calcium/calmodulin-dependent 3',5'-cyclic nucleotide phosphodiesterase 1B (Q01064 whole entry, the tested form may be a part): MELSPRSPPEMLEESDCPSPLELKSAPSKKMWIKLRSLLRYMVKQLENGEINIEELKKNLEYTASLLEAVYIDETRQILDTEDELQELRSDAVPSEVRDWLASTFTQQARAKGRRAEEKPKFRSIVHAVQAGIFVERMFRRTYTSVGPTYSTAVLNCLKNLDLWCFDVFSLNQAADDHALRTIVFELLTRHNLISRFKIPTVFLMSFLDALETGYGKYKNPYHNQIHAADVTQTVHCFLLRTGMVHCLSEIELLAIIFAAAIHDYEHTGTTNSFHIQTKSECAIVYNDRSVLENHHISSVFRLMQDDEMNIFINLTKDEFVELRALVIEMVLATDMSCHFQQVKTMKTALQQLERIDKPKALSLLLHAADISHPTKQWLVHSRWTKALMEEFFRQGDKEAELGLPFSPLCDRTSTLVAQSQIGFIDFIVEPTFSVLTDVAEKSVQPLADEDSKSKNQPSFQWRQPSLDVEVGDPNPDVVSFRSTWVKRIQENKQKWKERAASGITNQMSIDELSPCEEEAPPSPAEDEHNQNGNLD

Rattus norvegicus [5] = assay: Inhibition of hypertrophic response in Wistar rat model of monocrotaline pulmonary arterial hypertension assessed as reduction of MCT-induced increase in small pulmonary artery wall thickness at 5 mg/kg, po for 3 weeks; type: functional, organism-based
[6] = Half life in rat liver microsomes at 0.5 uM; type: ADME, microsome
Rattus norvegicus [7] = assay: Toxicity in Sprague-Dawley rat assessed as overt toxicity up to 300 mg/kg, po daily for 2 weeks; type: organism-based; conditions: in vivo, 336 h
[8] = MRT (0 to t) in Sprague-Dawley rat at 5 mg/kg, po by LC-MS/MS analysis; type: ADME, organism-based; conditions: in vivo
Liver [9] = assay: Intrinsic clearance in rat liver microsomes at 0.5 uM; type: ADME, microsome
Rattus norvegicus [10] = assay: Reduction in MCT-induced increase in mean pulmonary arterial pressure in Wistar rat model of monocrotaline pulmonary arterial hypertension assessed as mean pulmonary arterial pressure at 5 mg/kg, po for 3 weeks (reference value: 32.74 mmHg); type: functional
[11] = Acute toxicity in Kunming mouse administered as single oral dose measured up to 2 weeks post dose; conditions: in vivo
Rattus norvegicus [12] = assay: Reduction in MCT-induced increase in right ventricle hypertrophy index in Wistar rat model of monocrotaline pulmonary arterial hypertension at 5 mg/kg, po for 3 weeks; type: functional, organism-based
[13] = AUC (0 to t) in Sprague-Dawley rat at […], iv by LC-MS/MS analysis; type: ADME, organism-based; conditions: in vivo
[14] = Half life in Sprague-Dawley rat at 5 mg/kg, po by LC-MS/MS analysis; type: ADME, organism-based; conditions: in vivo
Liver [15] = assay: Drug metabolism in rat liver microsomes assessed as metabolic rate; type: ADME, microsome
Liver [16] = assay: Drug metabolism in human liver microsomes assessed as metabolic rate; type: ADME, microsome
Mus musculus [17] = assay: Acute toxicity in Kunming mouse assessed as effect on food consumption at 1000 to 1500 mg/kg, po administered as single dose measured up to 2 weeks post dose; type: organism-based; conditions: in vivo, 336 h
Rattus norvegicus [18] = assay: Toxicity in Sprague-Dawley rat assessed as effect on body weight up to 300 mg/kg, po daily for 2 weeks; type: organism-based; conditions: in vivo, 336 h
Mus musculus [19] = assay: Acute toxicity in Kunming mouse assessed as effect on water consumption at 1000 to 1500 mg/kg, po administered as single dose measured up to 2 weeks post dose; type: organism-based; conditions: in vivo, 336 h
[20] = Cmax in Sprague-Dawley rat at […], iv by LC-MS/MS analysis; type: ADME, organism-based; parameters: dose 2.5 mg/kg, route intravenous; conditions: in vivo
[21] = Apparent clearance in rat liver microsomes at 0.5 uM; type: ADME, microsome; conditions: read-out: CLH(app)
[22] = target: High affinity 3',5'-cyclic-AMP phosphodiesterase 7A (Homo sapiens, UniProt Q13946); assay: Inhibition of PDE7A1 (130 to 482 residues) (unknown origin) expressed in Escherichia coli BL21(DE3) using [3H]cGMP or [3H]cAMP as substrate after 15 mins by liquid scintillation counting method
Cytochrome P450 2D6 = Cytochrome P450 2D6 (Homo sapiens, UniProt P10635); assay: Inhibition of CYP2D6 in human microsomes in presence of NADPH; type: ADME
[23] = AUC (0 to infinity) in Sprague-Dawley rat at […], iv by LC-MS/MS analysis; type: ADME, organism-based; parameters: dose 2.5 mg/kg, time infinity, route intravenous; conditions: in vivo
Mus musculus [24] = assay: Acute toxicity in Kunming mouse assessed as mortality at 1000 to 1500 mg/kg, po administered as single dose measured up to 2 weeks post dose; type: organism-based; conditions: in vivo, 336 h
Cytochrome P450 2C19 = Cytochrome P450 2C19 (Homo sapiens, UniProt P33261); assay: Inhibition of CYP2C19 in human microsomes in presence of NADPH; type: ADME
Sequence of Cytochrome P450 2C19 (P33261 whole entry, the tested form may be a part): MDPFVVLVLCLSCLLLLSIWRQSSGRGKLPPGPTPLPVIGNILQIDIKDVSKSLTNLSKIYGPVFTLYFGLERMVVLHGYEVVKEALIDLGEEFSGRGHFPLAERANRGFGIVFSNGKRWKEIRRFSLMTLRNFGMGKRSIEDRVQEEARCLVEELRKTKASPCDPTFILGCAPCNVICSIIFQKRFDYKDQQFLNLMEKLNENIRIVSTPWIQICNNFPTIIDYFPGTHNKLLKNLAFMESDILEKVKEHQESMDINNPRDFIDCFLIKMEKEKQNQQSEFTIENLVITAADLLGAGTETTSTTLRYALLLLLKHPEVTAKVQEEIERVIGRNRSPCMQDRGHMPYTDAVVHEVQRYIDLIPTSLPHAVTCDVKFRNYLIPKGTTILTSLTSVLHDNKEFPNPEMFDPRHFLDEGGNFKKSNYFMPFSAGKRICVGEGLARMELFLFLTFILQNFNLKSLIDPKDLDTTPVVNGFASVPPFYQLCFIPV

[25] = target: cAMP and cAMP-inhibited cGMP 3',5'-cyclic phosphodiesterase 10A (Homo sapiens, UniProt Q9Y233); assay: Inhibition of PDE10A (449 to 770 residues) (unknown origin) expressed in Escherichia coli BL21(DE3) using [3H]cGMP or [3H]cAMP as substrate after 15 mins by liquid scintillation counting method
[26] = MRT (0 to t) in Sprague-Dawley rat at […], iv by LC-MS/MS analysis; type: ADME, organism-based; conditions: in vivo
Cytochrome P450 2C9 = Cytochrome P450 2C9 (Homo sapiens, UniProt P11712); assay: Inhibition of CYP2C9 in human microsomes in presence of NADPH; type: ADME
Sequence of Cytochrome P450 2C9 (P11712 whole entry, the tested form may be a part): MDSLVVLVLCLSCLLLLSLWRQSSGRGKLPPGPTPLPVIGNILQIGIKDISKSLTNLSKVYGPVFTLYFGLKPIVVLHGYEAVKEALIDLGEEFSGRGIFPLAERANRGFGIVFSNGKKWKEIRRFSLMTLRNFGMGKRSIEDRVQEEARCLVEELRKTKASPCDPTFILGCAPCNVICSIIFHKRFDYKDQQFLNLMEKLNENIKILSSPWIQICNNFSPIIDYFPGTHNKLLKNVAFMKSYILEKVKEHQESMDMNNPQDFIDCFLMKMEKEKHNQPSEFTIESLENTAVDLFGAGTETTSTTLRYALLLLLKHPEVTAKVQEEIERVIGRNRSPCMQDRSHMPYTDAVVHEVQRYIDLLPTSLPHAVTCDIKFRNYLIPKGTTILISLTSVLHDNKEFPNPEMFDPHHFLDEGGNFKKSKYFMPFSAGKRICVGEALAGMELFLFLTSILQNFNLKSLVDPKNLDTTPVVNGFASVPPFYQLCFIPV

[27] = target: High affinity cGMP-specific 3',5'-cyclic phosphodiesterase 9A (Homo sapiens, UniProt O76083); assay: Inhibition of PDE9A2 (181 to 506 residues) (unknown origin) expressed in Escherichia coli BL21(DE3) using [3H]cGMP or [3H]cAMP as substrate after 15 mins by liquid scintillation counting method
[28] = target: Rod cGMP-specific 3',5'-cyclic phosphodiesterase subunit alpha (Homo sapiens, UniProt P16499); assay: Inhibition of PDE6A (484 to 817 residues) (unknown origin) expressed in Escherichia coli BL21(DE3) using [3H]cGMP or [3H]cAMP as substrate after 15 mins by liquid scintillation counting method
[29] = Hepatic clearance in human microsomes at 0.5 uM; type: ADME, microsome; conditions: liver microsomes
Cytochrome P450 3A4 = Cytochrome P450 3A4 (Homo sapiens, UniProt P08684); assay: Inhibition of CYP3A4 in human microsomes in presence of NADPH; type: ADME
Sequence of Cytochrome P450 3A4 (P08684 whole entry): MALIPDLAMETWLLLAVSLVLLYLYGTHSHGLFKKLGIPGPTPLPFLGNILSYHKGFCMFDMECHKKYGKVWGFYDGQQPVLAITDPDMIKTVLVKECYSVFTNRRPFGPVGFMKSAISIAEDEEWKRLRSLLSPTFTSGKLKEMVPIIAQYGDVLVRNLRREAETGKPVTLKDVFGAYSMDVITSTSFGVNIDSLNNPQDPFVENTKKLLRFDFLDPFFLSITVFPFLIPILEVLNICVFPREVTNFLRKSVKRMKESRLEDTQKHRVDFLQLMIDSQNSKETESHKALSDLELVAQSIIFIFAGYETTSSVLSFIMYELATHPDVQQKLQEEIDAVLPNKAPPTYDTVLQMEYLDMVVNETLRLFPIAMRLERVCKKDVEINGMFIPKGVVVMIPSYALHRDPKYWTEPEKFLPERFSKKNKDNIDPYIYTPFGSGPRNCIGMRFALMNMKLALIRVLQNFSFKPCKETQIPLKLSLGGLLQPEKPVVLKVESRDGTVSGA

[30] = Tmax in Sprague-Dawley rat at 5 mg/kg, po by LC-MS/MS analysis; type: ADME, organism-based; conditions: in vivo
[31] = target: 3',5'-cyclic-AMP phosphodiesterase 4D (Homo sapiens, UniProt Q08499); assay: Inhibition of PDE4D2 (86 to 413 residues) (unknown origin) expressed in Escherichia coli BL21(DE3) using [3H]cAMP or [3H]cGMP as substrate after 15 mins by liquid scintillation counting method
Sequence of 3',5'-cyclic-AMP phosphodiesterase 4D (Q08499 whole entry, the tested form may be a part): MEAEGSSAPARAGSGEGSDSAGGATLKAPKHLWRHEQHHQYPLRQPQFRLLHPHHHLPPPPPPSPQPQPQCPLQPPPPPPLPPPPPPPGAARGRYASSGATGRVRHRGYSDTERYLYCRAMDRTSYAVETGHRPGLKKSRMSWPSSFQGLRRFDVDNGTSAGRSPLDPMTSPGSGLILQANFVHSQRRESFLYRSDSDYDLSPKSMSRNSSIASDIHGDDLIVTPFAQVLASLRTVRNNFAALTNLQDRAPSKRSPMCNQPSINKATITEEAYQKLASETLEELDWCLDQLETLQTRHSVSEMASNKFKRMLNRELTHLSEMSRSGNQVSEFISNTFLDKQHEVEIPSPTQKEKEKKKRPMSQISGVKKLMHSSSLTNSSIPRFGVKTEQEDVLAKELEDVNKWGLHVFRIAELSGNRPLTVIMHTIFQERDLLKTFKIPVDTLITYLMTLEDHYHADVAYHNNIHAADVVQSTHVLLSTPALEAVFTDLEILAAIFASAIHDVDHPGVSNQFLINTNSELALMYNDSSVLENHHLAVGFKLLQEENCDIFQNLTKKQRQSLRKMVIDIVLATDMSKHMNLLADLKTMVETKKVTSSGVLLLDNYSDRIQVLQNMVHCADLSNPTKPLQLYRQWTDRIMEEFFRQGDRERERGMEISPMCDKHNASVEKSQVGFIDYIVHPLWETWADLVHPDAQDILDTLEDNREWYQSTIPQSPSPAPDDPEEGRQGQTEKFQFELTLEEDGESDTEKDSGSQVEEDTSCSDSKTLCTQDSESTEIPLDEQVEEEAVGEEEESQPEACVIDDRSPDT

[32] = Oral bioavailability in Sprague-Dawley rat at 5 mg/kg by LC-MS/MS analysis; type: ADME, organism-based; conditions: in vivo
[33] = Cmax in Sprague-Dawley rat at 5 mg/kg, po by LC-MS/MS analysis; type: ADME, organism-based; parameters: dose 5 mg/kg, route oral; conditions: in vivo
Mus musculus [34] = assay: Acute toxicity in Kunming mouse assessed as effect on body weight at 1000 to 1500 mg/kg, po administered as single dose measured up to 2 weeks post dose; type: organism-based; conditions: in vivo, 336 h
[35] = target: cGMP-dependent 3',5'-cyclic phosphodiesterase (Homo sapiens, UniProt O00408); assay: Inhibition of PDE2A (580 to 919 residues) (unknown origin) expressed in Escherichia coli BL21(DE3) using [3H]cGMP or [3H]cAMP as substrate after 15 mins by liquid scintillation counting method
Sequence of cGMP-dependent 3',5'-cyclic phosphodiesterase (O00408 whole entry, the tested form may be a part): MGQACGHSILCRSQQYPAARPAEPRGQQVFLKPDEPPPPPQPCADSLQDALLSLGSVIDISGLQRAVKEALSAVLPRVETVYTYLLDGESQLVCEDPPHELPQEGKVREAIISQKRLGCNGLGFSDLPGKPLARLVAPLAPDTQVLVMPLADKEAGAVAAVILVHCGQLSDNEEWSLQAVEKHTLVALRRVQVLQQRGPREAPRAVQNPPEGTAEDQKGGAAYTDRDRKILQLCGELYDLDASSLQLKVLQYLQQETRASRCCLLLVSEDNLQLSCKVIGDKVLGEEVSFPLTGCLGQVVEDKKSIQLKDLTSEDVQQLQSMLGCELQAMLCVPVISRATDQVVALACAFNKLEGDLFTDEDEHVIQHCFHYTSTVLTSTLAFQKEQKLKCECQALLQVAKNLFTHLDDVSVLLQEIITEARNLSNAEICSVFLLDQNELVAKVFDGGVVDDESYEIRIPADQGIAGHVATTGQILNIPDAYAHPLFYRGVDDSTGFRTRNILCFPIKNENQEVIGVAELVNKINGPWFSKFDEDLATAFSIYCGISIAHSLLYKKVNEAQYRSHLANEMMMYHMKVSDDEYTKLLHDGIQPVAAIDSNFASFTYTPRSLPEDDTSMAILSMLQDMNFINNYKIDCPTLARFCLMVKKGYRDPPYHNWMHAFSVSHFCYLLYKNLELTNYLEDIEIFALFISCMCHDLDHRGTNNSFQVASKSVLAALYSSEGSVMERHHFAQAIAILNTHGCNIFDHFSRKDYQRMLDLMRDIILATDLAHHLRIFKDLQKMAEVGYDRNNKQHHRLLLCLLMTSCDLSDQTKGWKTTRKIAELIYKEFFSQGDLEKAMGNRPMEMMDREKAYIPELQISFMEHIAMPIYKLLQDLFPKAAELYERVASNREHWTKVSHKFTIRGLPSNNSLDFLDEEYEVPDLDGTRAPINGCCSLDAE

O=c1c2ccccc2oc2c(Cc3ccc4c(c3)OCO4)[nH]c(-c3nccs3)c12
CLint scaled at 0.5 µM [1]: 23.9 mL/min/kg | IC50 [2]: 6.22 µM | half-life at 0.5 µM [3]: 0.933 h | IC50 [4]: > 10 µM | inhibition (Rattus norvegicus [5]): Active | half-life at 0.5 µM [6]: 0.412 h | Activity (Rattus norvegicus [7]): Non-Toxic | MRT last [8]: 4.76 h | CLH (Liver [9]): 56.1 µL/min/mg | Activity (Rattus norvegicus [10]): 18.65 mmHg | MTD at 336 h [11]: > 1500 mg/kg | Activity (Rattus norvegicus [12]): Active | AUC(0-t) [13]: 1700 ng·h/mL | half-life [14]: 5.17 h | K (Liver [15]): 0.0281 | K (Liver [16]): 0.0124 | Activity (Mus musculus [17]): Non-Toxic | Activity (Rattus norvegicus [18]): Non-Toxic | Activity (Mus musculus [19]): Non-Toxic | Cmax [20]: 2360 ng/mL | CLint scaled at 0.5 µM [21]: 101 mL/min/kg | IC50 [22]: > 10 µM | IC50 (Cytochrome P450 2D6): > 25 µM | AUC(0-inf) [23]: 1730 ng·h/mL | Activity (Mus musculus [24]): Non-Toxic | IC50 (Cytochrome P450 2C19): > 20 µM | IC50 [25]: 0.153 µM | MRT last [26]: 2.14 h | IC50 (Cytochrome P450 2C9): > 25 µM | IC50 [27]: > 10 µM | IC50 [28]: 0.058 µM | CLhep predicted at 0.5 µM [29]: 10.9 mL/min/kg | IC50 (Cytochrome P450 3A4): > 25 µM | Tmax [30]: 4 h | IC50 [31]: 2.77 µM | bioavailability [32]: 63.4% | Cmax [33]: 368 ng/mL | Activity (Mus musculus [34]): Non-Toxic | IC50 [35]: 0.362 µM
